We go through 31 molecules from patent publication US8614215B2, “Quinoxaline inhibitors of phosphoinositide-3-kinases (PI3Ks)” (Merck Serono SA, priority 2007, dated 2013).

A word on the IC50: it is the concentration at which inhibition is half-maximal.

The first assay has as its system Human recombinant GST-PI3K. The experiment in a line: PI3K induced-lipid phosphorylation, neomycin-SPA scintillation proximity assay. It is filed as biochemical. The settings on record: Human recombinant GST-PI3K, SPA. The source says:
The efficacy of compounds of the invention in inhibiting the PI3K induced-lipid phosphorylation may be tested in the following binding assay. The assay combines the scintillation proximity assay technology (SPA, Amersham) with the capacity of neomycin (a polycationic antibiotic) to bind phospholipids with high affinity and specificity. The Scintillation Proximity Assay is based on the properties of weakly emitting isotopes (such as ^3H, ^125I, ^33P). Coating SPA beads with neomycin allows the detection of phosphorylated lipid substrates after incubation with recombinant PI3K and radioactive ATP in the same well, by capturing the radioactive phospholipids to the SPA beads through their specific binding to neomycin.
To a 96 wells MTP containing 10 μL of the test compound of Formula (I) (solubilized in 10% DMSO; […]), the following assay components are added: 1) 10 μL of lipid micelles 2) 20 μL of Kinase buffer ([^33P]γATP162 μM/300 nCi, MgCl2 2.5 mM, DTT 2.5 mM, Na3VO4 25 uM in Hepes 40 mM, pH 7.4) and 3) 10 μL (100 ng) of Human recombinant GST-PI3K (in Hepes 40 mM, pH 7.4, ethylenglycol 4%). After incubation at room temperature for 120 minutes, with gentle agitation, the reaction is stopped by addition of 200 μL of a solution containing 250 μg of neomycin-coated PVT SPA beads, ATP 60 mM and EDTA 6.2 mM in PBS. The assay is further incubated at room temperature for 60 minutes with gentle agitation to allow binding of phospholipids to neomycin-SPA beads. After precipitation of the neomycin-coated PVT SPA beads for 5 minutes at 1500×g, radioactive PtdIns(3)P is quantified by scintillation counting in a Wallac MicroBeta™ plate counter.
The values indicated in Table I below refer to the IC50 (μM) with respect to PI3K, i.e. the amount necessary to achieve 50% inhibition of said target. Said values show a considerable inhibitory potency of quinoxaline compounds with regard to PI3K.
(SPA uses beads or plates that emit light when radiolabelled molecules are held near them.)
For the molecule `COc1ccc(CCCO)c(Nc2nc3ccccc3nc2NS(=O)(=O)c2cccc(NC(=O)CN(C)C)c2)c1` [Example 78, 2-Dimethylamino-N-(3-{[(3-{[2-(3-hydroxypropyl)-5-methoxyphenyl]amino}quinoxalin-2-yl)]sulfamoyl}phenyl)-acetamide], the half-maximal inhibitory concentration (IC50) amounted to 30 nM.

For the molecule `COc1ccc(CCS(C)(=O)=O)c(Nc2nc3ccccc3nc2NS(=O)(=O)c2cn(C)c(CN(C)C)n2)c1` [Example 65, 2-[(Dimethylamino)methyl]-N-[3-({5-methoxy-2-[2-(methylsulfonyl)ethyl]phenyl}amino)quinoxalin-2-yl]-1-methyl-1H-imidazole-4-sulfonamide], the half-maximal inhibitory concentration (IC50) is 87 nM.

For `CCS(=O)(=O)Nc1nc2ccccc2nc1Nc1cc(OC)ccc1CCCO` [Example 48, N-(3-{[2-(3-Hydroxypropyl)-5-methoxyphenyl]amino}quinoxalin-2-yl)ethanesulfonamide], the IC50 is 59 nM.

Take `COCCNC(=O)c1cc(Nc2nc3ccccc3nc2NS(=O)(=O)c2cn(C)cn2)cc(OC)c1` [Example 80, 3-Methoxy-N-(2-methoxyethyl)-5-[(3-{[(1-methyl-1H-imidazol-4-yl)sulfonyl]amino}quinoxalin-2-yl)amino]benzamide]: the IC50 stood at 400 nM.

Consider `COc1ccc(CCS(C)(=O)=O)c(Nc2nc3ccccc3nc2NS(=O)(=O)CCCSC)c1` [Example 57, N-[3-({5-Methoxy-2-[2-(methylsulfonyl)ethyl]phenyl}amino)quinoxalin-2-yl]-3-(methylthio)propane-1-sulfonamide], for which the IC50 was determined as 140 nM.

For `COc1cc(Nc2nc3ccccc3nc2NS(C)(=O)=O)cc(C(=O)N2CCOCC2)c1` [Example 6, N-(3-{[3-methoxy-5-(morpholin-4-ylcarbonyl)phenyl]amino}quinoxalin-2-yl)methanesulfonamide], the IC50 turned out to be 5620 nM.

As to `COc1ccc(CCO)c(Nc2nc3ccccc3nc2NS(=O)(=O)c2ccc(CN3CCC(F)CC3)cc2)c1` [Example 90], the IC50 was found to be 43 nM.

`COc1ccc(CCCS(C)(=O)=O)c(Nc2nc3ccccc3nc2NS(=O)(=O)c2cn(C)cn2)c1` [Example 68, N-[3-({5-Methoxy-2-[3-(methylsulfonyl)propyl]phenyl}amino)quinoxalin-2-yl]-1-methyl-1H-imidazole-4-sulfonamide]: the IC50 came to 50 nM.

`COc1ccc(CCOC(=O)[C@@H](N)C(C)C)c(Nc2nc3ccccc3nc2NS(=O)(=O)c2cn(C)cn2)c1` [Example 104]: the half-maximal inhibitory concentration (IC50) stood at 100 nM.

`CCCS(=O)(=O)Nc1nc2ccccc2nc1Nc1cc(OC)ccc1CCS(C)(=O)=O` [Example 53, N-[3-({5-Methoxy-2-[2-(methylsulfonyl)ethyl]phenyl}amino)quinoxalin-2-yl]propane-1-sulfonamide]: the 50% inhibitory concentration (IC50) turned out to be 87 nM.

Consider `COc1ccc(CCO)c(Nc2nc3ccccc3nc2NS(=O)(=O)C2CCS(=O)(=O)C2)c1` (stereo not shown) [Example 56], for which the half-maximal inhibitory concentration (IC50) was found to be 86 nM.

In the case of `COc1ccc(CCS(C)(=O)=O)c(Nc2nc3ccccc3nc2NS(=O)(=O)CCCS(C)(=O)=O)c1` [Example 59, N-[3-({5-Methoxy-2-[2-(methylsulfonyl)ethyl]phenyl}amino)quinoxalin-2-yl]-3-(methylsulfonyl)propane-1-sulfonamide], the IC50 worked out at 350 nM.

`COc1ccc(CC2CCN(C)CC2)c(Nc2nc3ccccc3nc2NS(=O)(=O)c2cccnc2)c1` [Example 12, N-[3-({5-methoxy-2-[(1-methylpiperidin-4-yl)methyl]phenyl}amino)quinoxalin-2-yl]pyridine-3-sulfonamide]: the half-maximal inhibitory concentration (IC50) was found to be 45 nM.

For the molecule `COc1ccc(CCOC(=O)[C@@H](NC(=O)OCC2c3ccccc3-c3ccccc32)C(C)C)c(Nc2nc3ccccc3nc2NS(=O)(=O)c2cn(C)cn2)c1` [Example 103, 2-{4-Methoxy-2-[(3-{[(1-methyl-1H-imidazol-4-yl)sulfonyl]amino}quinoxalin-2-yl)amino]phenyl}ethyl N-[(9H-fluoren-9-ylmethoxy)carbonyl]-L-valinate], the IC50 stood at 1840 nM.

Consider `CCS(=O)(=O)Nc1nc2ccccc2nc1Nc1cc(OC)ccc1CCS(C)(=O)=O` [Example 51, N-[3-({5-Methoxy-2-[2-(methylsulfonyl)ethyl]phenyl}amino)quinoxalin-2-yl]ethanesulfonamide], for which the IC50 turned out to be 88 nM.

For the molecule `COc1ccc(CCCO)c(Nc2nc3ccccc3nc2NS(=O)(=O)c2cn(C)c(CO)n2)c1` [Example 74, 2-(Hydroxymethyl)-N-(3-{[2-(3-hydroxypropyl)-5-methoxyphenyl]amino}quinoxalin-2-yl)-1-methyl-1H-imidazole-4-sulfonamide], the 50% inhibitory concentration (IC50) was determined as 84 nM.

As for `COc1cc(CN(C)C)cc(Nc2nc3ccccc3nc2NS(=O)(=O)c2cn(C)cn2)c1` [Example 95, N-[3-({3-[(Dimethylamino)methyl]-5-methoxyphenyl}amino)quinoxalin-2-yl]-1-methyl-1H-imidazole-4-sulfonamide], the IC50 was 1100 nM.

For `CCCS(=O)(=O)Nc1nc2ccccc2nc1Nc1cc(OC)ccc1CCO` [Example 39, N-(3-{[2-(2-Hydroxyethyl)-5-methoxyphenyl]amino}quinoxalin-2-yl)propane-1-sulfonamide], the half-maximal inhibitory concentration (IC50) was 44 nM.

Turning to `COc1ccc(CC2CCN(S(C)(=O)=O)CC2)c(Nc2nc3ccccc3nc2NS(=O)(=O)c2cn(C)cn2)c1` [Example 97, N-{3-[(5-methoxy-2-{[1-(methylsulfonyl)piperidin-4-yl]methyl}phenyl)amino]quinoxalin-2-yl}-1-methyl-1H-imidazole-4-sulfonamide], the half-maximal inhibitory concentration (IC50) was 160 nM.

With `COc1ccc(CCO)c(Nc2nc3ccccc3nc2NS(=O)(=O)c2ccc(C)[n+]([O-])c2)c1` [Example 33, N-(3-{[2-(2-Hydroxyethyl)-5-methoxyphenyl]amino}quinoxalin-2-yl)-6-methylpyridine-3-sulfonamide 1-oxide], the IC50 amounted to 106 nM.

With `COc1ccc(CCCO)c(Nc2nc3ccccc3nc2NS(C)(=O)=O)c1` [Example 46, N-(3-{[2-(3-Hydroxypropyl)-5-methoxyphenyl]amino}quinoxalin-2-yl)methanesulfonamide], the IC50 was determined as 64 nM.

As to `CCS(=O)(=O)Nc1nc2ccccc2nc1Nc1cc(OC)ccc1CCO` [Example 38, N-(3-{[2-(2-Hydroxyethyl)-5-methoxyphenyl]amino}quinoxalin-2-yl)ethanesulfonamide], the half-inhibitory concentration (IC50) is 60 nM.

With `COc1ccc(CCO)c(Nc2nc3ccccc3nc2NS(=O)(=O)c2ccc(OCCO)cc2)c1` [Example 94], the half-inhibitory concentration (IC50) came out at 34 nM.

As to `COc1ccc(CC2CCCCC2)c(Nc2nc3ccccc3nc2NS(=O)(=O)c2cn(C)cn2)c1` [Example 20, N-(3-{[2-(cyclohexylmethyl)-5-methoxyphenyl]amino}quinoxalin-2-yl)-1-methyl-1H-imidazole-4-sulfonamide], the IC50 is 450 nM.

Take `COc1cc(Nc2nc3ccccc3nc2NS(=O)(=O)c2cccnc2)cc(C(=O)N2CCN(C)CC2)c1` [Example 4, N-[3-({3-methoxy-5-[(4-methylpiperazin-1-yl)carbonyl]phenyl}amino)quinoxalin-2-yl]pyridine-3-sulfonamide]: the IC50 stood at 3340 nM.

Regarding `COC(=O)CCc1ccc(S(=O)(=O)Nc2nc3ccccc3nc2Nc2cc(OC)ccc2CCO)cc1` [Example 41, Methyl 3-(4-{[(3-{[2-(2-hydroxyethyl)-5-methoxyphenyl]amino}quinoxalin-2-yl)amino]sulfonyl}phenyl)propanoate], the IC50 is 70 nM.

For the molecule `COc1ccc(CC2CCCCC2)c(Nc2nc3ccccc3nc2NS(=O)(=O)c2cccnc2)c1` [Example 19, N-(3-{[2-(cyclohexylmethyl)-5-methoxyphenyl]amino}quinoxalin-2-yl)pyridine-3-sulfonamide], the concentration for half-maximal inhibition (IC50) was determined as 490 nM.

For the molecule `COc1ccc(CCCO)c(Nc2nc3ccccc3nc2NS(=O)(=O)C2CCNCC2)c1` [Example 99, N-(3-{[2-(3-Hydroxypropyl)-5-methoxyphenyl]amino}quinoxalin-2-yl)piperidine-4-sulfonamide], the half-maximal inhibitory concentration (IC50) came out at 26 nM.

As for `COc1ccc(CCS(C)(=O)=O)c(Nc2nc3ccccc3nc2NS(C)(=O)=O)c1` [Example 44, N-[3-({5-Methoxy-2-[2-(methylsulfonyl)ethyl]phenyl}amino)quinoxalin-2-yl]methanesulfonamide], the half-inhibitory concentration (IC50) worked out at 200 nM.

Turning to `COc1ccc(CCO)c(Nc2nc3ccccc3nc2NS(=O)(=O)c2cccnc2)c1` [Example 27, N-(3-{[2-(2-hydroxyethyl)-5-methoxyphenyl]amino}quinoxalin-2-yl)pyridine-3-sulfonamide], the IC50 amounted to 40 nM.

The same assay, now with this note: at 20 μM.
On to `COc1ccc(CC2CCCCC2)c(Nc2nc3ccccc3nc2NS(C)(=O)=O)c1` [Example 21, N-(3-{[2-(cyclohexylmethyl)-5-methoxyphenyl]amino}quinoxalin-2-yl)methanesulfonamide], for which the “PI3K inhibition at single concentration” value is recorded as 68% at 20 μM.
